Test results reported in patent publication US9012443B2 (Amgen Inc., priority 2011, dated 2015).

Experiments:
[1] = target: T1, Nav 1.7 (Homo sapiens (Human), UniProt Q15858); assay: Nav 1.7 IWQ in vitro assay (IonWorks Quattro population patch-clamp); format: cell-based; conditions: for IC50: 293 cells stably transfected with Nav 1.7, second part of table, read-out: Nav1.7 IWQ IC50 IP
How it was run: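 HEK293 cells stably expressing Nav 1.7, recorded by automated population patch-clamp with a train of depolarizations producing increasing inactivation. Single compound concentration added during 3–8 min unclamped period, then same protocol repeated. Leak-corrected current at 26th pulse to −20 mV gave percent block (duplicate); IC50 fitted from concentration–block curves.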

[2] = target: T1, Nav 1.7; assay: Nav 1.7 in vitro PX assay (PatchXpress whole cell voltage clamp); format: cell-based; conditions: 293 cells, human Nav1.7, partially inactivated state; read-out: Nav1.7 PX IC50 IP
How it was run: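 HEK293 cells stably expressing human Nav1.7, whole-cell voltage clamp on PatchXpress, held at potential giving 20–50% inactivation; current elicited by 20 msec pulse to −10 mV.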

T1 sequence (Q15858 whole entry): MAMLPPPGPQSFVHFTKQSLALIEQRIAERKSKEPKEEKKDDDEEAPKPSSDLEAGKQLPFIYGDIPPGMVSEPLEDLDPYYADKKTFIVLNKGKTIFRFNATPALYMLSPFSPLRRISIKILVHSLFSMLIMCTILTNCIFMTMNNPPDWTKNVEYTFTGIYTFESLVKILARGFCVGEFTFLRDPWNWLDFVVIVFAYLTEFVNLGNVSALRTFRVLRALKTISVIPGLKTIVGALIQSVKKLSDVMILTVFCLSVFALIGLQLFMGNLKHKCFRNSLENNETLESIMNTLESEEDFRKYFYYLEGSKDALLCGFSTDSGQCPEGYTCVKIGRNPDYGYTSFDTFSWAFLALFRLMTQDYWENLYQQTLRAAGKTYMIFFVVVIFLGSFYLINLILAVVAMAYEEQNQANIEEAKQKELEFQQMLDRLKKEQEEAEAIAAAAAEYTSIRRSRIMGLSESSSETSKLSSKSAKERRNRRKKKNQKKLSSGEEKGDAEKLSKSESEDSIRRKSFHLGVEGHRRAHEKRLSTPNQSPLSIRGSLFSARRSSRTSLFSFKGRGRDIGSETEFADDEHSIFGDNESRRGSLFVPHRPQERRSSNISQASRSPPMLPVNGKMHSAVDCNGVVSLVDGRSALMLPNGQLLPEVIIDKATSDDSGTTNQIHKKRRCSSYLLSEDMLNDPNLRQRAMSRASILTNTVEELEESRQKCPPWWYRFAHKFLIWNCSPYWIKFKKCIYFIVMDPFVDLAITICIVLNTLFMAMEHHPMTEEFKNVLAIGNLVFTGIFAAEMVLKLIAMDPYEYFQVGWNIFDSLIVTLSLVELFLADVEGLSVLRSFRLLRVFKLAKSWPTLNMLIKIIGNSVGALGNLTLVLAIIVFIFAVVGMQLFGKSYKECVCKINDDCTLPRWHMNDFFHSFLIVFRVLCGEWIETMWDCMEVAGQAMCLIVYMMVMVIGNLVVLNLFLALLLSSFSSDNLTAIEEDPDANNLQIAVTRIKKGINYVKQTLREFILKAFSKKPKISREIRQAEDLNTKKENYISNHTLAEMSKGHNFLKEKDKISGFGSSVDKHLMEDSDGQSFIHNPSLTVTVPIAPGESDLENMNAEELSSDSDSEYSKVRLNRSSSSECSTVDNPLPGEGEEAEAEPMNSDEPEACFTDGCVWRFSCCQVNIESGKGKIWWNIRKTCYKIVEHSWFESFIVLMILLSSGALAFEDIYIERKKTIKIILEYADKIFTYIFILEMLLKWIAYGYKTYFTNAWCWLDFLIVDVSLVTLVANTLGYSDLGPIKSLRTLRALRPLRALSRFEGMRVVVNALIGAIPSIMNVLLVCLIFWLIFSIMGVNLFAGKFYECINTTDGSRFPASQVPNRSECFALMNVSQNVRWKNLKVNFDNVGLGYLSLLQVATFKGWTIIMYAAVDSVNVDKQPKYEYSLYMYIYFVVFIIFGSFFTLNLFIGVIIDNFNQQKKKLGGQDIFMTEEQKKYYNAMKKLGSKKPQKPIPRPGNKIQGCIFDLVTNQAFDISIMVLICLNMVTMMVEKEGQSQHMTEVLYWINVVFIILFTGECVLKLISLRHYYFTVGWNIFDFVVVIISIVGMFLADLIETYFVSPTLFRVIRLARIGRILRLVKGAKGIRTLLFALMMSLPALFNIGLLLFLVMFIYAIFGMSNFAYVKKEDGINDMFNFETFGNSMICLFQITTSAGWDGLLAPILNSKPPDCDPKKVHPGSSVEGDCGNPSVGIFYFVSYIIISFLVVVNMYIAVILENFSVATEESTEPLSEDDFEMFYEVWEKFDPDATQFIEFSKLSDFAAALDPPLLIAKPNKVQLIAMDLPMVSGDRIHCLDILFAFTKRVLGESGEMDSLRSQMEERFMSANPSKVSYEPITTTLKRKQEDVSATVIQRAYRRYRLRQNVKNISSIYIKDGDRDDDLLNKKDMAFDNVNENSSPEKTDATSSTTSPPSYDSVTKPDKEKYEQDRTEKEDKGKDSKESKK

Row | Compound | IC50 [1] [nM] | IC50 [2] [nM] | Nav1.7 Single Point Data IWQ (at […]) (%) ([1]; at […])
1 | Cn1cncc1-c1cc(C(F)(F)F)ccc1-c1cccc2cc(S(=O)(=O)Nc3ncc(F)s3)ccc12 [Example 110] | 40 | 140 | 
2 | O=S(=O)(Nc1nccs1)c1ccc2c(C3CCCN3Cc3ccccc3)cccc2c1 (stereo not drawn) [Example 98] | 2220 | 13000 | 
3 | COc1cc(F)c(C)cc1-c1nccc2cc(S(=O)(=O)Nc3ccncn3)ccc12 [Example 154] | 40 | 2180 | 
4 | O=C(c1ccccc1)N1CCCC1c1cccc2cc(S(=O)(=O)Nc3nccs3)ccc12 (stereo not drawn) [Example 101] | 1160 | 11800 | 
5 | COc1cc(C(F)(F)F)ccc1-c1ncc(OC)c2cc(S(=O)(=O)Nc3nccs3)ccc12 [Example 231, 4-METHOXY-1-(2-METHOXY-4-(TRIFLUOROMETHYL)PHENYL)-N-(THIAZOL-2-YL)ISOQUINOLINE-6-SULFONAMIDE 2,2,2-TRIFLUOROACETATE] | 40 | 270 | 
6 | O=S(=O)(Nc1ncns1)c1ccc2c(NCc3ccccc3)cccc2c1 [Example 99, 5-(benzylamino)-N-(1,2,4-thiadiazol-5-yl)naphthalene-2-sulfonamide] | 1180 | 4450 | 
7 | COc1cc(C#N)ccc1-c1nccc2cc(S(=O)(=O)Nc3nccs3)ccc12 [Example 205, 1-(4-CYANO-2-METHOXYPHENYL)-N-(THIAZOL-2-YL)ISOQUINOLINE-6-SULFONAMIDE] | 20 | 470 | 
8 | O=S(=O)(Nc1ncns1)c1ccc2c(C3CCCN3Cc3ccccc3)cccc2c1 (stereo not drawn) [Example 97] | 460 | 2220 | 
9 | COc1cc(C(F)(F)F)ccc1-c1ncc(C#N)c2cc(S(=O)(=O)Nc3nccs3)ccc12 [Example 240, 4-CYANO-1-(2-METHOXY-4-(TRIFLUOROMETHYL)PHENYL)-N-(THIAZOL-2-YL)ISOQUINOLINE-6-SULFONAMIDE] | 190 | 390 | 
10 | COc1cc(C(F)(F)F)ccc1-c1ncnc2cc(S(=O)(=O)Nc3ncco3)ccc12 [Example 264, 4-(2-METHOXY-4-(TRIFLUOROMETHYL)PHENYL)-N-(OXAZOL-2-YL)QUINAZOLINE-7-SULFONAMIDE] | 170 | 1870 | 
11 | COc1cc(Cl)ccc1-c1ncnc2cc(S(=O)(=O)Nc3nccs3)ccc12 [Example 267, 4-(4-CHLORO-2-METHOXYPHENYL)-N-(THIAZOL-2-YL)QUINAZOLINE-7-SULFONAMIDE] | 10 | 300 | 
12 | O=S(=O)(Nc1nccs1)c1ccc2c(-c3ccc(C(F)(F)F)cc3-n3ccnc3)nccc2c1 [Example 229, 1-(2-(1H-IMIDAZOL-1-YL)-4-(TRIFLUOROMETHYL)PHENYL)-N-(THIAZOL-2-YL)ISOQUINOLINE-6-SULFONAMIDE] | 10 | 420 | 
13 | CN1CCC(c2cc(C(F)(F)F)ccc2-c2cccc3cc(S(=O)(=O)Nc4ccncn4)ccc23)CC1 [Example 116] | 70 | 623 | 
14 | Cn1ccnc1-c1cc(C(F)(F)F)ccc1-c1cccc2cc(S(=O)(=O)Nc3ncc(F)s3)ccc12 [Example 111] | 60 | 332 | 
15 | COc1cc(C#N)ccc1-c1ncc(F)c2cc(S(=O)(=O)Nc3nccs3)ccc12 [Example 214, 1-(4-CYANO-2-METHOXYPHENYL)-4-FLUORO-N-(THIAZOL-2-YL)ISOQUINOLINE-6-SULFONAMIDE] | 20 | 211 | 
16 | COc1ccc(-c2nccc3cc(S(=O)(=O)Nc4ccncn4)ccc23)c(OC)n1 [Example 145, 1-(2,6-DIMETHOXYPYRIDIN-3-YL)-N-(PYRIMIDIN-4-YL)ISOQUINOLINE-6-SULFONAMIDE] | 920 | 16400 | 
17 | COc1ccc(C(F)(F)F)cc1-c1nccc2cc(S(=O)(=O)Nc3nccs3)ccc12 [Example 180, 1-(2-METHOXY-5-(TRIFLUOROMETHYL)PHENYL)-N-(THIAZOL-2-YL)ISOQUINOLINE-6-SULFONAMIDE] | 40 | 439 | 
18 | CC1CCCN1c1cccc2cc(S(=O)(=O)Nc3ncns3)ccc12 (stereo not drawn) [Example 91] | 270 | 1470 | 
19 | COc1cc(C(F)(F)F)ccc1-c1ncnc2cc(S(=O)(=O)Nc3ccncn3)ccc12 [Example 262, 4-(2-METHOXY-4-(TRIFLUOROMETHYL)PHENYL)-N-(PYRIMIDIN-4-YL)QUINAZOLINE-7-SULFONAMIDE] | 40 | 960 | 
20 | COc1cc(F)c(F)cc1-c1nccc2cc(S(=O)(=O)Nc3ccncn3)ccc12 [Example 142, 1-(4,5-DIFLUORO-2-METHOXYPHENYL)-N-(PYRIMIDIN-4-YL)ISOQUINOLINE-6-SULFONAMIDE] | 60 | 1790 | 

Row | Compound | IC50 [1] [nM] | IC50 [2] [nM] | Nav1.7 Single Point Data IWQ (at […]) (%) ([1]; at […])
21 | O=S(=O)(Nc1ccncn1)c1ccc2c(OCCCc3ccc(Cl)cc3)nccc2c1 [Example 132, 1-(3-(4-CHLOROPHENYL)PROPOXY)-N-(PYRIMIDIN-4-YL)ISOQUINOLINE-6-SULFONAMIDE] | 870 | 7900 | 
22 | O=S(=O)(Nc1nccs1)c1ccc2c(-c3ccc(C(F)(F)F)cc3CC(O)CO)nccc2c1 (stereo not drawn) [Example 230, 1-(2-(2,3-DIHYDROXYPROPYL)-4-(TRIFLUOROMETHYL)PHENYL)-N-(THIAZOL-2-YL)ISOQUINOLINE-6-SULFONAMIDE 2,2,2-TRIFLUOROACETATE] | 30 | 590 | 
23 | COc1cc(-c2ccccc2)ccc1-c1cccc2cc(S(=O)(=O)Nc3ccncn3)ccc12 [Example 115] | 180 | 692 | 
24 | COc1ccccc1-c1cccc2cc(S(=O)(=O)Nc3ncns3)ccc12 [Example 94] | 10 | 57.2 | 
25 | COc1ccccc1-c1nccc2cc(S(=O)(=O)Nc3ncns3)ccc12 [Example 194, 1-(2-METHOXYPHENYL)-N-(1,2,4-THIADIAZOL-5-YL)ISOQUINOLINE-6-SULFONAMIDE] | 10 | 255 | 
26 | Cc1c(-c2nccc3cc(S(=O)(=O)Nc4nccs4)ccc23)cnn1-c1ccccc1 [Example 208, 1-(5-METHYL-1-PHENYL-1H-PYRAZOL-4-YL)-N-(THIAZOL-2-YL)ISOQUINOLINE-6-SULFONAMIDE 2,2,2-TRIFLUOROACETATE] | 2140 | 27500 | 
27 | COc1cc(C#N)ccc1-c1nncc2cc(S(=O)(=O)Nc3nccs3)ccc12 [Example 251, 1-(4-CYANO-2-METHOXYPHENYL)-N-(THIAZOL-2-YL)PHTHALAZINE-6-SULFONAMIDE] | 80 | 1990 | 
28 | COc1cccc(OC)c1-c1nccc2cc(S(=O)(=O)Nc3ccncn3)ccc12 [Example 171, 1-(2,6-DIMETHOXYPHENYL)-N-(PYRIMIDIN-4-YL)ISOQUINOLINE-6-SULFONAMIDE] | 730 | 23000 | 
29 | O=S(=O)(Nc1ncc(F)s1)c1ccc2c(-c3ccc(C(F)(F)F)cc3C3=CCNCC3)cccc2c1 [Example 108] | 170 | 210 | 
30 | COc1ccc(Cl)cc1-c1nccc2cc(S(=O)(=O)Nc3ccncn3)ccc12 [Example 146, 1-(5-CHLORO-2-METHOXYPHENYL)-N-(PYRIMIDIN-4-YL)ISOQUINOLINE-6-SULFONAMIDE] | 30 | 1370 | 
31 | COc1ccccc1-c1ncc(F)c2cc(S(=O)(=O)Nc3nccs3)ccc12 [Example 211, 4-FLUORO-1-(2-METHOXYPHENYL)-N-(THIAZOL-2-YL)ISOQUINOLINE-6-SULFONAMIDE] | 10 | 251 | 
32 | O=S(=O)(Nc1nccs1)c1ccc2c(N3CCC[C@@H]3c3ccccc3)nccc2c1 [Example 238, (R)-1-(2-phenylpyrrolidin-1-yl)-N-(thiazol-2-yl)isoquinoline-6-sulfonamide] | 140 | 770 | 
33 | CN1CCC=C(c2cc(C(F)(F)F)ccc2-c2cccc3cc(S(=O)(=O)Nc4ccncn4)ccc23)C1 [Example 122] | 40 | 492 | 
34 | COc1cc(C(F)(F)F)ccc1-c1ncnc2cc(S(=O)(=O)Nc3nncs3)ccc12 [Example 268, 4-(2-METHOXY-4-(TRIFLUOROMETHYL)PHENYL)-N-(1,3,4-THIADIAZOL-2-YL)QUINAZOLINE-7-SULFONAMIDE] | 1100 | 2520 | 
35 | COc1cc(C(F)(F)F)ccc1-c1nccc2cc(S(=O)(=O)Nc3ncc(F)s3)ccc12 [Example 198, N-(5-FLUOROTHIAZOL-2-YL)-1-(2-METHOXY-4-(TRIFLUOROMETHYL)PHENYL)ISOQUINOLINE-6-SULFONAMIDE 2,2,2-TRIFLUOROACETATE] | 40 | 422 | 
36 | COc1cc(C(F)(F)F)ccc1-c1nncc2cc(S(=O)(=O)Nc3nccs3)ccc12 [Example 253, 1-(2-METHOXY-4-(TRIFLUOROMETHYL)PHENYL)-N-(THIAZOL-2-YL)PHTHALAZINE-6-SULFONAMIDE] | 20 | 340 | 
37 | COc1ccc(OC)c(-c2nccc3cc(S(=O)(=O)Nc4ccncn4)ccc23)c1 [Example 147, 1-(2,5-DIMETHOXYPHENYL)-N-(PYRIMIDIN-4-YL)ISOQUINOLINE-6-SULFONAMIDE] | 130 | 5820 | 
38 | COCc1cc(C(F)(F)F)ccc1-c1nccc2cc(S(=O)(=O)Nc3nccs3)ccc12 [Example 225, 1-(2-(METHOXYMETHYL)-4-(TRIFLUOROMETHYL)PHENYL)-N-(THIAZOL-2-YL)ISOQUINOLINE-6-SULFONAMIDE] | 30 | 741 | 
39 | COc1cc(Cl)ccc1-c1ncc(F)c2cc(S(=O)(=O)Nc3nccs3)ccc12 [Example 215, 1-(4-CHLORO-2-METHOXYPHENYL)-4-FLUORO-N-(THIAZOL-2-YL)ISOQUINOLINE-6-SULFONAMIDE] | 20 | 86 | 
40 | COC(=O)c1cccc2cc(S(=O)(=O)Nc3ncns3)ccc12 [Example 318, METHYL 6-(N-(1,2,4-THIADIAZOL-5-YL)SULFAMOYL)-1-NAPHTHOATE] | > 10000 | 37400 | 32
